This passage reports IC50 results from PMC2701622 (Journal of immunology (Baltimore, Md. : 1950), 2009).

No end group written: not given here.

The target of this test is HLA-B*2705 (Homo sapiens, UniProt P01889, D138H/D201E/E176V/E204Q/G107R/H137Y/K202T/N104T/N87E/Q56L/Q94K/R106L/R155S/R180L/S101D/S121N/S48T/Y140D/Y33H/Y91C). Nature of the test: biochemical. Type of test: binding.
For NRAKQVIKL [reference compound], the IC50 (in general, the point on the concentration scale where inhibition reaches its midpoint) is 0.324 µM.

In turn, ARAALQELL came in with an IC50 of 0.137 µM.

KRGVFVLGF [Env524–532KF9] returned an IC50 of 0.013 µM.

With SRTPYHVNL, the half-maximal inhibitory concentration (IC50) stood at 0.022 µM. Compound DRLALLANL [reference compound] came in with a half-inhibitory concentration (IC50) of 0.181 µM. Regarding LRQGYRPVF [Env717–725LF9], half-maximal inhibition (IC50) was put at 0.052 µM. In turn, IRILQRALF [Vpr62–70IF9] displayed a half-maximal inhibitory concentration (IC50) of 0.014 µM. In the case of KRLRLIHLL [Rev12–20KL9], inhibition was half-maximal at 0.0011 µM (IC50). For RRAIRGEQL [Vif123–131RL9], the IC50 is 0.028 µM. In turn, MRDHTITLL [reference compound] had a 50% inhibitory concentration (IC50) of 0.052 µM. Consider SRLEILNVL, for which the half-inhibitory concentration (IC50) worked out at 0.08 µM. Next, ARLFGIRAK [reference compound]: 0.133 µM; SRHHAFCFR [reference compound]: 0.042 µM; RRSKEITVR [reference compound]: 0.0055 µM.

For “KRLAETLAL [KRLAETLAL, reference compound]”, the IC50 was found to be 0.165 µM. Regarding TRYPTILQL, half-maximal inhibition (IC50) required 0.097 µM. KRQQELLRL [Env573–581KL9] registered a half-maximal inhibitory concentration (IC50) of 0.069 µM.

Compound RRLTARGLL [Nef246–254RL9] returned an IC50 of 0.0099 µM.

Compound RRSPFLQVF came in with an IC50 of 0.014 µM. RRISGVDRY [reference compound] registered a concentration for half-maximal inhibition (IC50) of 0.021 µM. ARKLLLDNL [reference compound] came in with an IC50 of 0.074 µM. For the compound YRRWIQLGL [Gag263–271YL9], the IC50 amounted to 0.0027 µM. As for SRLWPKIQGL, half-maximal inhibition (IC50) was put at 0.017 µM. Next, RRIRQGLEL [Env868–876RL9]: 0.013 µM; RRQDILDLWI [reference compound]: 0.099 µM; RRPPLLPLLL: 0.1 µM. Next, SRQFGFIVL: 0.128 µM. With EREQTLNQL [reference compound], inhibition was half-maximal at 2.69 µM (IC50). Turning to RRRWQQLL [Rev44–51RL8], inhibition was half-maximal at 0.012 µM (IC50).

In the case of RRDNRRGL [Vif172–179RL8], the IC50 turned out to be 0.175 µM. On to `CC(C)C[C@H](NC(=O)[C@H](CCC(=O)O)NC(=O)[C@@H](NC(=O)[C@H](CO)NC(=O)[C@H](CCCCN)NC(=O)[C@H](CCC(N)=O)NC(=O)[C@H](Cc1ccc(O)cc1)NC(=O)[C@H](CCCNC(=N)N)NC(=O)[C@@H](N)CCCNC(=N)N)[C@@H](C)O)C(=O)O` [reference compound], for which half-maximal inhibition (IC50) required 0.0062 µM. For the compound SRYDPSISF, the half-maximal inhibitory concentration (IC50) is 0.254 µM. Next, `CC(C)C[C@H](NC(=O)[C@H](CCCNC(=N)N)NC(=O)[C@H](CC(C)C)NC(=O)[C@H](C)NC(=O)[C@H](CCC(=O)O)NC(=O)[C@@H]1CCCN1C(=O)[C@H](Cc1ccccc1)NC(=O)[C@H](CCCNC(=N)N)NC(=O)[C@@H](N)CO)C(=O)O` [reference compound]: 0.012 µM; RRHRILDIYL [Nef137–146RL10]: 0.0018 µM.

Turning to NRFSVAYML [reference compound], inhibition was half-maximal at 0.0098 µM (IC50). Consider RRYNIIPVL, for which the IC50 was determined as 0.0079 µM. As to RRSRPSGDL [Nef8–16RL9], the IC50 stood at 0.351 µM.
